Assay results as given in patent publication US20230190754A1, “Therapeutic combinations for the treatment of Progressive Fibrosing interstitial lung diseases” (Boehringer Ingelheim International GmbH, priority 2021, published 2023).
Values joined by “and” are separate entries in the source; they are usually repeats but may differ in a detail not shown here. Identical values can stand only once.

How the values were obtained:
[1] = system: IPF patients; assay: Phase II clinical trial in IPF patients: completion / premature discontinuation of observation and treatment period; assay type: in vivo, human; settings: 18 mg b.i.d.
Procedure: The participants were divided into 2 groups by chance (the “active agent group” and the “placebo group”). […] One 12 mg placebo tablet and one 6 mg placebo tablet (both containing no active ingredient, see Table 1) was administered orally to the patients of the second group twice daily (b.i.d.).
The “active agent group” and the “placebo group” were further distributed to two different groups regarding background medication: the “AF-group” (“antifibrotic background medication group”) and the “Non-AF-group” (“no antifibrotic background medication group”). […] The combination of both nintedanib and pirfenidone as background medication was not allowed in the “AF-group”.
The trial was a randomised, double-blind, placebo-controlled parallel group study.

[2] = system: IPF patients; assay: Phase II clinical trial in IPF patients: change from baseline in Forced Vital Capacity (FVC) over 12 weeks (MMRM); assay type: in vivo, human; settings: 18 mg b.i.d.
[3] = AF-group (antifibrotic background)
[4] = AF-group (antifibrotic background), listed as Comp. of Form. III
[5] = AF-group (antifibrotic background), listed as active agent
[6] = AF-group, nintedanib background
[7] = AF-group, pirfenidone background
[8] = pooled background therapy (Non-AF+AF)

## [O-][S@+]1CCc2nc(N3CCC(c4ncc(Cl)cn4)CC3)nc(NC3(CO)CCC3)c21 [Comp. of form. III]
[1]; [3]
  Not completed planned treatment period (premature discontinuation), patients %: 20.4%
  Not completed planned treatment period (premature discontinuation), patients N: 10
  Observation period not completed: Death, patients %: 2.0%
  Observation period not completed: Death, patients N: 1
  Treatment period not completed: Adverse Event, patients %: 20.4%
  Treatment period not completed: Adverse Event, patients N: 10
[1]; Non-AF-group
  Not completed planned treatment period (premature discontinuation), patients %: 10.4%
  Not completed planned treatment period (premature discontinuation), patients N: 5
  Observation period not completed: Death, patients %: 2.1%
  Observation period not completed: Death, patients N: 1
  Treatment period not completed: Adverse Event, patients %: 6.3%
  Treatment period not completed: Adverse Event, patients N: 3
[2]; [4]
  Adjusted mean change from baseline in FVC to week 12 (MMRM): 2.72 mL
  Adjusted mean difference vs. Placebo in change from baseline in FVC to week 12 (MMRM): 80.4 mL and 80.42 mL
[2]; [5]
  Adjusted mean change from baseline in FVC to week 12 (MMRM): +2.72 ml
  Adjusted mean difference vs. Placebo in change from baseline in FVC to week 12 (MMRM): 80.42 mL
[2]; [6]
  Adjusted mean change from baseline in FVC to week 12 (MMRM): 23.41 mL
  Adjusted mean difference vs. Placebo in change from baseline in FVC to week 12 (MMRM): 105.43 mL
  Week 12 Mean FVC: 2787.37 mL
[2]; AF-group, nintedanib background, listed as PDE4-inhibitor of formula III
  Adjusted mean change from baseline in FVC to week 12 (MMRM): +23.41 ml
[2]; [7]
  Adjusted mean change from baseline in FVC to week 12 (MMRM): -18.76 mL
  Adjusted mean difference vs. Placebo in change from baseline in FVC to week 12 (MMRM): 61.30 mL
  Week 12 Mean FVC: 2879.35 mL
[2]; AF-group, pirfenidone background, listed as PDE4-inhibitor of formula III
  Adjusted mean change from baseline in FVC to week 12 (MMRM): -18.67 mL
[2]; Non-AF-group
  Adjusted mean change from baseline in FVC to week 12 (MMRM): 6.10 mL
  Adjusted mean difference vs. Placebo in change from baseline in FVC to week 12 (MMRM): 101.7 mL and 101.72 mL
[2]; Non-AF-group, listed as PDE4-inhibitor of formula III
  Adjusted mean difference vs. Placebo in change from baseline in FVC to week 12 (MMRM): 101.72 mL
[2]; Non-AF-group, listed as active agent
  Adjusted mean difference vs. Placebo in change from baseline in FVC to week 12 (MMRM): 101.72 mL
[2]; [8]
  Adjusted mean change from baseline in FVC to week 12 (MMRM): 4.59 mL
  Adjusted mean difference vs. Placebo in change from baseline in FVC to week 12 (MMRM): 88.38 mL
[2]; pooled background therapy (Non-AF+AF), listed as active agent
  Adjusted mean change from baseline in FVC to week 12 (MMRM): -4.59 mL
